# Source: PubChem BioAssay (NCI)
#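 96-well plates; 48 h exposure; 5 concentrations. Endpoints by linear interpolation between flanking doses. Not reached: highest tested concentration assigned. TGI: concentration producing complete growth inhibition.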
# Assays:
# Assay in all cases: NCI-60 cell line screen, 48 h
# IGROV1 ovarian = test system: IGROV1 ovarian
# SK-MEL-5 melanoma = test system: SK-MEL-5 melanoma
# A498 renal = test system: A498 renal
# SNB-78 CNS = test system: SNB-78 CNS
# MALME-3M melanoma = test system: MALME-3M melanoma
# SK-MEL-28 melanoma = test system: SK-MEL-28 melanoma
# UACC-257 melanoma = test system: UACC-257 melanoma
# OVCAR-3 ovarian = test system: OVCAR-3 ovarian
# HCT-15 colon = test system: HCT-15 colon
# SNB-19 CNS = test system: SNB-19 CNS
# LXFL 529 NSCLC = test system: LXFL 529 NSCLC
# NCI-H522 lung = test system: NCI-H522 lung
# HCT-116 colon = test system: HCT-116 colon
# SF-268 CNS = test system: SF-268 CNS
# UACC-62 melanoma = test system: UACC-62 melanoma
# HCC-2998 colon = test system: HCC-2998 colon
# U251 CNS = test system: U251 CNS
# RPMI-8226 leukemia = test system: RPMI-8226 leukemia
# EKVX NSCLC = test system: EKVX NSCLC
# DMS 114 small cell lung = test system: DMS 114 small cell lung
# SN12C renal = test system: SN12C renal
# SNB-75 CNS = test system: SNB-75 CNS
# SK-MEL-2 melanoma = test system: SK-MEL-2 melanoma
# SF-539 CNS = test system: SF-539 CNS
# HOP-92 NSCLC = test system: HOP-92 NSCLC
# SF-295 CNS = test system: SF-295 CNS
# CCRF-CEM leukemia = test system: CCRF-CEM leukemia
# SK-OV-3 ovarian = test system: SK-OV-3 ovarian
# LOX IMVI melanoma = test system: LOX IMVI melanoma
# TK-10 renal = test system: TK-10 renal
# OVCAR-4 ovarian = test system: OVCAR-4 ovarian
# HOP-62 NSCLC = test system: HOP-62 NSCLC
# KM20L2 colon = test system: KM20L2 colon
# M14 melanoma = test system: M14 melanoma
# ACHN renal = test system: ACHN renal
# OVCAR-8 ovarian = test system: OVCAR-8 ovarian
# MOLT-4 leukemia = test system: MOLT-4 leukemia
# COLO 205 colon = test system: COLO 205 colon
# OVCAR-5 ovarian = test system: OVCAR-5 ovarian
# NCI-H23 lung = test system: NCI-H23 lung
# DLD-1 colon = test system: DLD-1 colon
# HT29 colon = test system: HT29 colon
# NCI-H460 lung = test system: NCI-H460 lung
# A549 NSCLC = test system: A549 NSCLC
# K-562 leukemia = test system: K-562 leukemia
# DU-145 prostate = test system: DU-145 prostate
# MDA-MB-231 breast = test system: MDA-MB-231 breast
# MCF7 breast = test system: MCF7 breast
# KM12 colon = test system: KM12 colon
# SR leukemia = test system: SR leukemia
# UO-31 renal = test system: UO-31 renal
# NCI/ADR-RES ovarian = test system: NCI/ADR-RES ovarian
# MDA-N = test system: MDA-N
# NCI-H226 lung = test system: NCI-H226 lung
# MDA-MB-435 = test system: MDA-MB-435
# 786-0 renal = test system: 786-0 renal
# SW-620 colon = test system: SW-620 colon
# CAKI-1 renal = test system: CAKI-1 renal
# PC-3 prostate = test system: PC-3 prostate
# HS 578T breast = test system: HS 578T breast
# RXF 393 renal = test system: RXF 393 renal
# BT-549 breast = test system: BT-549 breast
# T-47D breast = test system: T-47D breast
# HL-60(TB) leukemia = test system: HL-60(TB) leukemia
compound,measurement,setting,value
CC(=O)c1ccc(Oc2ccc(/C(C)=N\N=C(N)N)cc2)cc1,TGI,IGROV1 ovarian,18.2 µM
same,TGI,SK-MEL-5 melanoma,6.98 µM
same,TGI,A498 renal,7.53 µM
same,TGI,SNB-78 CNS,16.6 µM
same,TGI,MALME-3M melanoma,8.12 µM
same,TGI,SK-MEL-28 melanoma,17.4 µM
same,TGI,UACC-257 melanoma,19 µM
same,TGI,OVCAR-3 ovarian,4.89 µM
same,TGI,HCT-15 colon,13.2 µM
same,TGI,SNB-19 CNS,22.5 µM
same,TGI,LXFL 529 NSCLC,17.4 µM
same,TGI,NCI-H522 lung,4.04 µM
same,TGI,HCT-116 colon,13 µM
same,TGI,SF-268 CNS,16.1 µM
same,TGI,UACC-62 melanoma,10.1 µM
same,TGI,HCC-2998 colon,20.8 µM
same,TGI,U251 CNS,10 µM
same,TGI,RPMI-8226 leukemia,8.7 µM
same,TGI,EKVX NSCLC,16.7 µM
same,TGI,DMS 114 small cell lung,4.98 µM
same,TGI,SN12C renal,13.4 µM
same,TGI,SNB-75 CNS,5.15 µM
same,TGI,SK-MEL-2 melanoma,6.17 µM
same,TGI,SF-539 CNS,3.48 µM
same,TGI,HOP-92 NSCLC,13.8 µM
same,TGI,SF-295 CNS,6.18 µM
same,TGI,CCRF-CEM leukemia,10.4 µM
same,TGI,SK-OV-3 ovarian,9.25 µM
same,TGI,LOX IMVI melanoma,13.1 µM
same,TGI,TK-10 renal,12.8 µM
same,TGI,OVCAR-4 ovarian,23 µM
same,TGI,HOP-62 NSCLC,9.72 µM
same,TGI,KM20L2 colon,3.43 µM
same,TGI,M14 melanoma,4.76 µM
same,TGI,ACHN renal,17.4 µM
same,TGI,OVCAR-8 ovarian,12.7 µM
same,TGI,MOLT-4 leukemia,12.2 µM
same,TGI,COLO 205 colon,3.26 µM
same,TGI,OVCAR-5 ovarian,17.4 µM
same,TGI,NCI-H23 lung,12.8 µM
same,TGI,DLD-1 colon,14.3 µM
same,TGI,HT29 colon,3.52 µM
same,TGI,NCI-H460 lung,10.5 µM
same,TGI,A549 NSCLC,14.5 µM
O=C(Oc1ccccc1)c1cc2cc(CCl)ccc2oc1=O,TGI,IGROV1 ovarian,> 100 µM
same,TGI,SK-MEL-5 melanoma,27.5 µM
same,TGI,A498 renal,33.9 µM
same,TGI,MALME-3M melanoma,8.11 µM
same,TGI,SK-MEL-28 melanoma,> 100 µM
same,TGI,K-562 leukemia,> 100 µM
same,TGI,UACC-257 melanoma,27.5 µM
same,TGI,OVCAR-3 ovarian,> 100 µM
same,TGI,DU-145 prostate,98.7 µM
same,TGI,MDA-MB-231 breast,82 µM
same,TGI,HCT-15 colon,> 100 µM
same,TGI,SNB-19 CNS,> 100 µM
same,TGI,NCI-H522 lung,24.6 µM
same,TGI,MCF7 breast,> 100 µM
same,TGI,HCT-116 colon,> 100 µM
same,TGI,SF-268 CNS,73.9 µM
same,TGI,UACC-62 melanoma,27.5 µM
same,TGI,HCC-2998 colon,47.1 µM
same,TGI,KM12 colon,> 100 µM
same,TGI,SR leukemia,> 100 µM
same,TGI,U251 CNS,> 100 µM
same,TGI,RPMI-8226 leukemia,> 100 µM
same,TGI,EKVX NSCLC,38.5 µM
same,TGI,SN12C renal,67.4 µM
same,TGI,SNB-75 CNS,57.3 µM
same,TGI,SK-MEL-2 melanoma,15.3 µM
same,TGI,SF-539 CNS,> 100 µM
same,TGI,HOP-92 NSCLC,28.7 µM
same,TGI,SF-295 CNS,98.4 µM
same,TGI,CCRF-CEM leukemia,> 100 µM
same,TGI,UO-31 renal,68.1 µM
same,TGI,SK-OV-3 ovarian,83.2 µM
same,TGI,LOX IMVI melanoma,> 100 µM
same,TGI,NCI/ADR-RES ovarian,> 100 µM
same,TGI,MDA-N,> 100 µM
same,TGI,NCI-H226 lung,> 100 µM
same,TGI,MDA-MB-435,> 100 µM
same,TGI,TK-10 renal,43.8 µM
same,TGI,OVCAR-4 ovarian,68.9 µM
same,TGI,HOP-62 NSCLC,> 100 µM
same,TGI,786-0 renal,64.4 µM
same,TGI,M14 melanoma,67.1 µM
same,TGI,ACHN renal,21.1 µM
same,TGI,SW-620 colon,> 100 µM
same,TGI,OVCAR-8 ovarian,> 100 µM
same,TGI,MOLT-4 leukemia,> 100 µM
same,TGI,COLO 205 colon,52.9 µM
same,TGI,OVCAR-5 ovarian,> 100 µM
same,TGI,NCI-H23 lung,42 µM
same,TGI,CAKI-1 renal,29.8 µM
same,TGI,PC-3 prostate,29.2 µM
same,TGI,HT29 colon,> 100 µM
same,TGI,HS 578T breast,52.8 µM
same,TGI,NCI-H460 lung,51.6 µM
same,TGI,RXF 393 renal,27.9 µM
same,TGI,A549 NSCLC,> 100 µM
same,TGI,BT-549 breast,> 100 µM
same,TGI,T-47D breast,38.7 µM
same,TGI,HL-60(TB) leukemia,> 100 µM
